Structures can show the parent of a compound that is named as a salt. Where two headings read alike, the source gives them in different places.
Assays:
Cryptosporidium parvum = experiment: qRT-PCR assay of the growth of C. parvum in vitro in HCT-8 host cells (primary and secondary screening, EC50); type: cell-based; settings: Cryptosporidium parvum, HCT-8
[1] = primary screening at 10 uM, treated vs control
[2] = primary screening at 10 uM, read-out: Inhibition (%)

| SMILES | Hs18S ΔCT (HCT-8 host cells (Hs18S); [1]) | cytotoxicity at 10 µM (in vitro) | inhibition at 10 µM (Cryptosporidium parvum; [2]) | Hs18S ΔCT (HCT-8 host cells (Hs18S); human, 41 h, 10 μM) | cytotoxicity at 41 h, 10 µM (in vitro; human) | other results |
| --- | --- | --- | --- | --- | --- | --- |
| C[C@@H]1CC[C@@]2(OC1)O[C@H]1C[C@H]3[C@@H]4CC=C5C[C@@H](O)CC[C@]5(C)[C@H]4CC[C@]3(C)[C@H]1[C@@H]2C [DIOSGENIN] | 0.32 | 19.7% | 14.7% | – | – | – |
| COc1ccc(-c2cc(=O)c3c(O)cc(O[C@@H]4O[C@H](CO[C@@H]5O[C@@H](C)[C@H](O)[C@@H](O)[C@H]5O)[C@@H](O)[C@H](O)[C@H]4O)cc3o2)cc1O [DIOSMIN] | – | – | 13.8% | -0.65 | -57.1% | – |
| CC/C=C\C/C=C\C/C=C\C/C=C\C/C=C\C/C=C\CCC(=O)O [DOCONEXENT] | – | – | -24.5% | -0.06 | -4% | – |
| CCCCCCCCCCCCCCCCCCCCCCO [DOCOSANOL] | – | – | 24.4% | -0.38 | -30.5% | – |
| COc1ccc([C@H]2COc3c(ccc(O)c3OC)C2)c(OC)c1O [DUARTIN (-)] | – | – | -26.9% | -0.20 | -15.3% | – |
| COc1ccc2c(c1OC)OC[C@@H](c1ccc(OC)c(OC)c1OC)C2 [DUARTIN, DIMETHYL ETHER] | – | – | -13.5% | -0.22 | -16.4% | – |
| O=c1oc2c(O)c(O)cc3c(=O)oc4c(O)c(O)cc1c4c23 [ELLAGIC ACID] | – | – | -14.6% | -0.05 | -3.6% | – |
| CCCCCCCCCCCC1=C(O)C(=O)C=C(O)C1=O [EMBELIN] | 0.13 | 8.8% | -5.38% | – | – | – |
| CC[C@H]1CN2CCc3cc(OC)c(OC)cc3[C@@H]2C[C@@H]1C[C@H]1NCCc2cc(OC)c(OC)cc21 [EMETINE DIHYDROCHLORIDE] | 1.41 | – | 97.3% | – | – | cytotoxicity at 41 h, 10 µM (in vitro): 62.4%; inhibition at 3.3 µM (Cryptosporidium parvum; secondary screening at 3.3 uM, read-out: % Inhibition (3.3 uM)): 95% |
| Cc1cc(O)c2c(c1)C(=O)c1cc(O)cc(O)c1C2=O [EMODIN] | – | – | -18% | -0.04 | -3% | – |
| CC1(C)[C@@H](O)CC[C@]2(C)[C@H]3C(=O)C=C4[C@@H]5C[C@@](C)(C(=O)O)CC[C@]5(C)CC[C@@]4(C)[C@]3(C)CC[C@@H]12 [ENOXOLONE] | – | – | -8.81% | -0.07 | -5.3% | – |
| Oc1ccc([C@H]2Oc3cc(O)cc(O)c3C[C@H]2O)cc1 [EPIAFZELECHIN (2R,3R)(-)] | – | – | -2.1% | -0.14 | -10.2% | – |
| COc1ccc([C@H]2Oc3cc(OC)cc(OC)c3C[C@H]2O)cc1 [EPIAFZELECHIN TRIMETHYL ETHER] | – | – | 13.8% | 0.21 | 13.4% | – |
| CC(=O)Oc1cc(OC(C)=O)c2c(c1)O[C@H](c1ccc(OC(C)=O)c(OC(C)=O)c1)[C@H](OC(C)=O)C2 [EPICATECHIN PENTAACETATE] | -0.02 | -1.3% | -52.5% | – | – | – |
| Oc1cc(O)c2c(c1)O[C@H](c1ccc(O)c(O)c1)[C@H](O)C2 [EPICATECHIN] | – | – | -0.62% | -0.09 | -6.3% | – |
| O=C(Oc1cc(O)cc2c1C[C@@H](OC(=O)c1cc(O)c(O)c(O)c1)[C@@H](c1cc(O)c(O)c(O)c1)O2)c1cc(O)c(O)c(O)c1 [EPIGALLOCATECHIN 3,5-DIGALLATE] | -0.23 | -17.5% | -1.19% | – | – | – |
| Oc1cc(O)c2c(c1)O[C@H](c1cc(O)c(O)c(O)c1)[C@H](O)C2 [EPIGALLOCATECHIN] | – | – | 7.01% | 0.15 | 9.9% | – |
| CNC[C@H](O)c1ccc(O)c(O)c1 [EPINEPHRINE BITARTRATE] | – | 2.6% | – | – | – | Hs18S ΔCT (HCT-8 host cells (Hs18S)): 0.04; inhibition at 10 µM (Cryptosporidium parvum): -27.1% |
| C[C@@H]1C(=O)O[C@H]2[C@H]1CC[C@@]1(C)C=CC(=O)[C@@]3(C)O[C@@]213 [EPOXY (4,5alpha)-4,5-DIHYDROSANTONIN] | -0.03 | -1.8% | 29.7% | – | – | – |
| C[C@]12CC[C@H]3C(=CCc4cc(O)ccc43)[C@@H]1CCC2=O [EQUILIN] | -0.60 | – | -53.6% | – | – | cytotoxicity at 41 h, 10 µM (in vitro): -51.5% |
| C[C@@H](CO)NC(=O)[C@@H]1C=C2c3cccc4[nH]cc(c34)C[C@H]2N(C)C1 [ERGONOVINE MALEATE] | 0.23 | 14.5% | 2.56% | – | – | – |
| CC(C)[C@@H](C)/C=C/[C@@H](C)[C@H]1CC[C@H]2C3=CC=C4C[C@@H](O)CC[C@]4(C)[C@H]3CC[C@]12C [ERGOSTEROL] | -0.03 | – | -29.6% | – | -1.9% | – |

— publication PMC6736568, “Discovery of Novel Anti-cryptosporidial Activities From Natural Products by in vitro High-Throughput Phenotypic Screening” (Frontiers in Microbiology, 2019)
